According to ChEMBL document CHEMBL1157539, “Thousands of chemical starting points for antimalarial lead identification” (Nature, 2010):

What follows are molecules tested on Plasmodium falciparum (assay: GSK_TCMDC: Inhibition of Plasmodium falciparum 3D7 in whole erythrocytes, using parasite LDH activity as an index of growth.). Conditions: Plasmodium falciparum, 3D7.
Format: functional, organism-based
`CCN1CCC(N(Cc2ccc(-c3ccc(C(F)(F)F)cc3)cc2)C(=O)Cn2c(CCc3cccc(F)c3F)cc(=O)c3ccccc32)CC1` showed an XC50 of 832 nM. With `CCN(CC)CCN(Cc1ccc(-c2ccc(C(F)(F)F)cc2)cc1)C(=O)Cn1c(CCc2ccc(F)cc2)nc(=O)c2ccccc21` the XC50 was 1070 nM. Molecule `CCNC(C)(C)CN(Cc1ccc(-c2ccc(C(F)(F)F)cc2)cc1)C(=O)Cn1c(SCc2ccc(F)cc2)nc(=O)c2c1CCC2` has an XC50 of 991 nM. In the case of `CCN1CCN(c2ccc(Nc3c4ccccc4nc4ccccc34)cc2)CC1`, the XC50 is reported as 718 nM. For `CCN(CC)Cc1cc(Nc2ccnc3cc(Cl)ccc23)ccc1O`, the XC50 was 160 nM. In the case of `Cc1[nH]c(C)c(-c2ccc(-c3ccc(Cl)cc3)cc2)c(=O)c1Cl`, the XC50 is reported as 215 nM. `Cn1cnc2c(Nc3ccncc3)nc(-c3ccc4c(c3)OCO4)nc21` gave an XC50 of 1110 nM. Molecule `COc1cc(NC(=O)Nc2cccc3ccccc23)c(OC)cc1Cl` has an XC50 of 484 nM. Work on `CCOC(=O)c1ccc(NC(=O)N(Cc2ccc(-c3cccc(CN4CCNCC4)c3)cc2)C2CCN(Cc3ccccc3)CC2)cc1` yielded an XC50 of 748 nM. `COc1ccc(O)cc1/C=N/Nc1ccnc2cc(Cl)ccc12` showed an XC50 of 544 nM. `CCc1cn(C)c2c(N3CCCC3=O)cc(C(=O)N[C@@H](Cc3ccccc3)[C@H](O)CNC(C)(C)c3cccc(C(F)(F)F)c3)cc12` gave an XC50 of 106 nM. In the case of `O=C(NCCN1CCOCC1)c1ccc(CNC(=O)c2ccc(O)c(-c3ccc(Cl)c(Cl)c3)c2)cc1`, the XC50 is reported as 929 nM. Molecule `O=c1cc(NCCCCNCc2cccc(Br)c2)[nH]c2ccccc12` has an XC50 of 729 nM. `Cc1cc(C2CCN(CCCCNC(=O)c3ccc(-c4ccc(C#N)cc4)cc3)CC2)c(C)cc1OCCO` was tested, and the XC50 was 808 nM. `O=C(Nc1ccc(Cn2nc(Cl)c(N3CCCNCC3)cc2=O)cc1)Nc1ccc(-c2ccccc2)cc1` was tested, and the XC50 was 843 nM. Work on `CN(C)c1ccc(C2(c3ccccc3)N=C(N)N(CCCc3ccccc3)C2=O)cc1` (stereo not drawn) yielded an XC50 of 971 nM. With `COc1cccc(C2CCN(CCN3CCC(NC(=O)c4ccc(-c5ccc(C#N)cc5)cc4)CC3)CC2)c1` the XC50 was 699 nM. Work on `CN1CCN(CCCN(Cc2cccc(-c3ccc(CNCc4ccc5c(c4)OCO5)cc3)c2)C(=O)Nc2ccccc2)CC1` yielded an XC50 of 681 nM. In the case of `Oc1ccc2c(CNCCc3ccccc3)c(O)ccc2c1CNCCc1ccccc1`, the XC50 is reported as 104 nM. Work on `c1ccc2cc3c(Nc4ccc(N5CCCCC5)cc4)ccnc3cc2c1` yielded an XC50 of 739 nM. `COc1ccccc1CN1CCC(CNC(=O)c2cc(-c3cccc(C(F)(F)F)c3)cs2)C1` (stereo not drawn) was tested, and the XC50 was 1310 nM. Work on `O=C1CC(C(=O)O)CC(=O)N1` yielded an XC50 of 763 nM. Work on `Cc1cccc2nc(-c3ccc(-c4ccc(NC(=O)Nc5cccc(C#N)c5)cc4)cc3)[nH]c12` yielded an XC50 of 114 nM. `Fc1ccc2[nH]c(-c3cccc(-c4ccc(CN5CCC(CCN6CCCCC6)CC5)cc4)c3)nc2c1` showed an XC50 of 142 nM. `CC(=NNC(=N)N)c1ccc2ccc3ccccc3c2c1` showed an XC50 of 892 nM. In the case of `O=C(NCC(c1ccc(C(F)(F)F)cc1)N1CCCC1)c1cc(-c2ccncc2)c(-c2cccc(O)c2)o1` (stereo not drawn), the XC50 is reported as 1060 nM. Molecule `CCn1cc(-c2cc(C(=O)Nc3ccc(OC)cc3C)c3ccccc3n2)c(C)n1` has an XC50 of 975 nM. For `COc1cc(CCNc2nc(NCc3cccc4ccccc34)nc(N3CCC(N)CC3)n2)ccc1O`, the XC50 was 787 nM. With `COCCNCc1nc(-c2ccc3c(Nc4ccc(Cl)cc4F)ccnc3c2)cs1` the XC50 was 1080 nM. Molecule `N=C(N)c1ccc(-c2cc3ccc(C(=N)N)cc3[nH]2)cc1` has an XC50 of 59.9 nM. `O=C(Nc1cccc(Cl)c1)c1cnc(N2CCN(c3ccncc3)CC2)c(Cl)c1` showed an XC50 of 963 nM. Molecule `Oc1ccc2nc(NCCCc3ccccc3)nc(NCCCc3ccccc3)c2c1` has an XC50 of 398 nM. Work on `COc1ccc(-c2cnc3[nH]cc(-c4ccncc4)c3c2)cc1OC` yielded an XC50 of 126 nM. Work on `O=C(O)c1cc(C(F)(F)F)co1` yielded an XC50 of 825 nM. For `O=C(NCCN1CCCCC1)c1ccc(CNC(=O)c2ccc(O)c(-c3cccc(C(F)(F)F)c3)c2)cc1`, the XC50 was 886 nM. `Cc1cc(-c2nc3cncc(-c4cccc(CN5CCCC5Cc5cccnc5)c4)c3n2C)nn1C` (stereo not drawn) showed an XC50 of 132 nM. `CCCc1cc(Cc2cnc(N)nc2N)cc2c1OC(C)(C)C2` showed an XC50 of 1080 nM. Molecule `Cc1cccc2nc(-c3ccc(-c4ccc(CN5CCC(CCN6CCCCC6)CC5)cc4)cc3)[nH]c12` has an XC50 of 144 nM. With `CCc1ccc(CN(Cc2ccc(C)cc2)Cc2ccc(NC(C)=O)cc2)cc1` the XC50 was 962 nM. `O=C1CC(C(=O)Nc2cccc(-c3cccc(-c4nc5ccccc5[nH]4)c3)c2)c2ccccc2N1` (stereo not drawn) showed an XC50 of 980 nM. In the case of `O=C(/C=C/c1ccc(Cl)c(Cl)c1)NC1CCC(CN2CCC(c3c[nH]c4ccccc34)CC2)CC1` (stereo not drawn), the XC50 is reported as 235 nM. In the case of `COc1cc2ccccc2cc1OCCCN1CCN(CC(c2ccc(F)cc2)N2CCN(C(C)C)CC2)CC1` (stereo not drawn), the XC50 is reported as 749 nM. `CCCNC(=O)c1ccnc(-c2ccc(CNC3Cc4ccccc4C3)cc2)c1` showed an XC50 of 940 nM. `COc1cc(CN/C(=N/c2ccc(-c3ccccc3)cc2)Nc2ccc(C#N)cc2O)cc(OC)c1` showed an XC50 of 718 nM. `COc1cc2c(C3CCN(CC4CCN(C(=O)/C=C/c5ccc(Cl)c(Cl)c5)CC4)CC3)c[nH]c2cn1` showed an XC50 of 730 nM. `C=CCc1ccc(C2CCN(CCCCNC(=O)c3ccc(NC(=O)c4ccc(Cl)cc4)cc3)CC2)cc1` gave an XC50 of 1120 nM. Molecule `FC(F)(F)c1ccc2[nH]c(-c3ccc(-c4cccc(CNCC5CCCO5)c4)cc3)nc2c1` (stereo not drawn) has an XC50 of 250 nM. Work on `CCCN(CCC)C(=O)c1cc(C(=O)N[C@@H](Cc2ccccc2)[C@H](O)CNC(C)(C)c2cccc(C(F)(F)F)c2)cc(N2CCCCS2(=O)=O)c1` yielded an XC50 of 36.2 nM. `CO/C(=C\C=C\c1cc2cc(Cl)c(Cl)cc2[nH]1)C(=O)NCCN1CCCCC1` showed an XC50 of 1400 nM. Work on `CCCc1cc(Cc2cnc(N)nc2N)cc2c1OC(C)C2C` (stereo not drawn) yielded an XC50 of 673 nM. `COc1cc(NC(=O)c2sc(-c3ccc(Cl)cc3)cc2NC(=O)CN2CC[C@@H](O)C2)ccc1OCCN1CCCC1` was tested, and the XC50 was 802 nM. In the case of `Clc1cccc(C=NNc2nc(=Nc3ccccc3)[nH]c(=Nc3ccccc3)[nH]2)c1`, the XC50 is reported as 844 nM. Molecule `CC(C)CNC(=O)c1cncc(-c2ccc(CN(C)C3CCN(C)CC3)cc2)c1` has an XC50 of 878 nM. `OC(CNC1CCCCC1)Cn1c2ccccc2c2ccccc21` (stereo not drawn) gave an XC50 of 991 nM. With `COc1ccc(Oc2ccc(-c3c(C)[nH]c(C)c(Cl)c3=O)cc2)cc1` the XC50 was 135 nM. `COc1ccc2nc3cc(Cl)ccc3c(Nc3ccc(O)c(CN4CC5CCC(CC5)C4)c3)c2c1` showed an XC50 of 172 nM. With `CC(C)(C)c1ccc2[nH]c(-c3ccc(C(=O)NC4CCN(Cc5ccccc5)CC4)s3)nc2c1` the XC50 was 359 nM. Molecule `CSc1ccc(CN2CCC(NC(=O)c3ccc(-c4cccc(C(F)(F)F)c4)s3)CC2)cc1` has an XC50 of 1220 nM. For `CC(=O)Nc1ccc(OCCCCCOc2ccc(NC(C)=O)cc2Cl)c(Cl)c1`, the XC50 was 833 nM. `CN(C)CCOc1ccnc2ccc(NC(=O)Cc3ccc(-c4ccncc4)c4ccccc34)cc12` gave an XC50 of 277 nM. With `Clc1ccc(CNCCCCCCCNCc2ccc(Cl)c(Cl)c2)cc1Cl` the XC50 was 372 nM. `CCCCCC(C)C(C)c1cc(O)c2c(c1)OC(C)(C)CC2c1cc[n+]([O-])cc1` (stereo not drawn) was tested, and the XC50 was 499 nM. Molecule `O=C(Nc1cccc(C2=NCCCN2)c1)Nc1cccc(C2=NCCCN2)c1` has an XC50 of 561 nM. Molecule `COc1cccc2cc(C(=O)N[C@@H](CC(C)C)C(=O)N[C@H](/C=N/NC(=O)Cc3cccnc3)CCc3ccccc3)oc12` has an XC50 of 951 nM. In the case of `Cc1c(CCNC(=O)CCCN2CC(C)CC(C)C2)c2ccccc2n1C` (stereo not drawn), the XC50 is reported as 1270 nM. `CCCCN1CC[C@@H](CCC(O)c2cc(OCCC)nc3ccc(OC)cc23)[C@@H](CC)C1` (stereo partly drawn) gave an XC50 of 356 nM. Molecule `Cc1cc(NCCC(=O)Nc2ccccc2)nc(NCc2ccccc2C)n1` has an XC50 of 657 nM. Molecule `Cn1ncc2c3c(CCN4CCC(NCc5cc6c(cn5)OCCO6)CC4)c(Cl)cnc3ccc21` has an XC50 of 775 nM. For `c1ccc(CNc2nc(NCCc3c[nH]cn3)nc(NCc3cccc4ccccc34)n2)cc1`, the XC50 was 1110 nM. `Cc1cc(N[C@@H](Cc2ccccc2)C(=O)NCCCOC(C)C)nc(NCC2CCCCC2)n1` gave an XC50 of 875 nM. For `N#Cc1cc(C(=O)c2cc(Cl)ccc2O)cn(-c2cccc(C(F)(F)F)c2)c1=O`, the XC50 was 1130 nM. `C=CCOc1ccc(-c2c(C)[nH]c(C)c(Br)c2=O)cc1` showed an XC50 of 283 nM. With `CCOCc1cnc(C)nc1CNC(=O)c1c(C)[nH]c2ccc(C)cc12` the XC50 was 1010 nM. `COc1ccc(NCc2cccc(-c3cccc(CNCCc4ccccc4)c3)c2)cc1` gave an XC50 of 1050 nM. `O=S(=O)(NC1=NCCC1)c1cccc(Nc2nc(C(F)(F)F)nc3ccccc23)c1` was tested, and the XC50 was 945 nM. `COc1cccc(NC(=O)Nc2ccc(C)c(-c3ccc(C(=O)Nc4ccncc4)cc3)c2)c1` gave an XC50 of 520 nM. Work on `CCCCc1ccc(NC(=O)Nc2ccc3c(c2)CCNCC3)cc1` yielded an XC50 of 585 nM. `COc1c(C2CCN(CCCCNC(=O)c3cccc(-c4ccc(C(F)(F)F)cc4)c3)CC2)ccc2c1CCCC2` was tested, and the XC50 was 777 nM. For `O=C(Nc1ccc(SC(F)(F)F)cc1)Nc1ccnc2ccccc12`, the XC50 was 746 nM. Molecule `O=C(Nc1ccnc2ccccc12)NC1CCN(Cc2ccccc2)CC1` has an XC50 of 988 nM. Work on `Cc1cc(N)nc2ccc(-c3ccc(CN)cc3)cc12` yielded an XC50 of 621 nM. For `CN1CCC(C(=O)N(Cc2ccc(-c3ccc(CNCCc4ccc(S(C)(=O)=O)cc4)cn3)cc2)C2Cc3ccccc3C2)CC1`, the XC50 was 665 nM. Molecule `Cc1cccc2nc(-c3cccc(-c4ccc(NC(=O)C(C)(C)c5ccccn5)cc4)c3)[nH]c12` has an XC50 of 685 nM. `CCCCCCn1c(Sc2ccc(C#N)c([N+](=O)[O-])c2)nnc1-c1ccc(Cl)cc1` gave an XC50 of 832 nM. In the case of `COc1ccccc1-n1ccnc1SCC(=O)Nc1cc(C(F)(F)F)ccc1Cl`, the XC50 is reported as 9.3 nM. `Nc1nc(N)c2c(ccc3c2ccn3Cc2ccc(-c3ccccc3)cc2)n1` gave an XC50 of 48.3 nM. For `Cc1cc(=O)[nH]c(-n2nc(C)cc2NC(=O)C2(c3ccc(Cl)cc3)CCCC2)n1`, the XC50 was 288 nM. With `COc1ccccc1NC(=O)NC1CCN(CCCCCNC(=O)/C=C/c2ccc(Cl)c(Cl)c2)CC1` the XC50 was 746 nM. `CN1CCN(c2ccc(Nc3nccc(-c4cnn5ncccc45)n3)cc2Cl)CC1` gave an XC50 of 833 nM. In the case of `Cc1ccccc1CN1CCCN(Cc2ccc(C(=O)Nc3ccc(Cl)cc3)cc2)CC1`, the XC50 is reported as 944 nM. `CN1CCC(COc2ccc(CN3CCC(NC(=O)c4cccc(Cl)c4)CC3)cc2)CC1` showed an XC50 of 889 nM. Work on `CN1CCC(Oc2ccc(CN3CC[C@H](NC(=O)c4ccc(Cl)c(Cl)c4)C3)c3ccccc23)C1` (stereo partly drawn) yielded an XC50 of 876 nM. In the case of `Cc1ccc2nc(C)n(C3CCN(C(=O)C4(c5ccccc5)CC4)CC3)c2c1`, the XC50 is reported as 821 nM. In the case of `CCN(CC)CCN1C(=O)c2oc3ccc(Cl)cc3c(=O)c2C1c1ccc(SC)cc1` (stereo not drawn), the XC50 is reported as 1060 nM. For `CCc1ccc(NC(=O)c2ccc(CN3CCCN(Cc4ccc(C)s4)CC3)cc2)cc1`, the XC50 was 1150 nM. `CC(C)(CNCc1ccccc1)c1nc(-c2ccc(Cl)c(O)c2)c(-c2ccncc2)[nH]1` showed an XC50 of 537 nM. Molecule `COc1ccc(O)cc1Cc1cnc2nc(N)nc(N)c2c1C` has an XC50 of 8.25 nM. `Nc1nc(N)c2cc(Sc3ccc4ccccc4c3)ccc2n1` showed an XC50 of 17.1 nM.
